Data as given in patent publication US7323452B2, “Method for the accelerated in vivo removal of ethanol” (Wardan, L.L.C., priority 2000, dated 2008).
Marks after values point to notes of the source that are not given here.

Legend:
Format in all cases: biochemical
ADH = ADH (Equus caballus, UniProt P00327); experiment: Rate of ADH catalyzed NAD+ oxidation of ethanol (rise in absorption at 340 nm) with additives; details: pH 9.25
Description: In Examples 51-53, the rate of ADH catalyzed NAD^+ oxidation of alcohol is followed by the rise in absorption at 340 nm, with and without additives. When a solvent (methanol) is needed to dissolve the additive, an equal amount is added to the “blank” or “control”. The results, as summarized in Table 3, indicate the effectiveness of Daidezin, Aloin and Methoxatin as accelerators.
To a 0.01M solution of ethanol (10 μL) in 1M pH 9.25 phosphate buffer, in a multi-well plate, is added a solution of aloin, of the indicated concentration (10 μL) and 10 μL of a solution containing 0.2 U/mL ADH and diluted to 180 μL with buffer. To the mixture is added 20 μL of a 0.01M solution of NAD^+ in deionized distilled water, and the absorbance at 340 nm is followed with time.
The procedure in Example 51 is repeated using Daidezin.
The procedure in Example 51 is repeated using Methoxatin.

[1] = Kinetics of transition metal oxidation of NADH (decrease in absorption at 340 nm)
Text: The rate of oxidation of NADH is followed over time as the decrease in the absorption at 340 nm.
The procedure in Example 43 is repeated replacing vanadyl sulfate with potassium ferricyanide.
The procedure in Example 43 is repeated replacing vanadyl sulfate with sodium molybdate.
The procedure in Example 43 is repeated replacing vanadyl sulfate with sodium phosphotungstate.

[2] = DNP test for acetaldehyde formation: ethanol oxidation with the enzyme solution omitted; details: no additive, stood 15 minutes
Description: (§1) The reagent quenches any oxidative reaction of alcohol as well as detects the formation of acetaldehyde. An orange, crystalline precipitate indicates a positive reaction.
(§2) The DNP reagent is a fresh solution of 0.5 gm. of 2.4-dinitrophenylhydrazine in 20 mL methanol and 5 mL concentrated sulfuric acid, diluted to 50 mL of deionized distilled water.
The procedure in Example 1 was repeated with the omission of the enzyme solution.
The procedure in Example 3 was repeated with the omission of the enzyme solution.
The procedure in Example 4 was repeated with the omission of NAD^+.
The procedure in Example 2 is repeated using a pH 7.25 1M phosphate buffer.
The procedure in Example 4 is repeated using a pH 7.25 1M phosphate buffer.
The procedure in Example 5 is repeated using a pH 7.25 1M phosphate buffer.

[3] = biological target: T1, Alcohol Dehydrogenase (from Equine liver) (Equus caballus, UniProt P00327); experiment: DNP test for acetaldehyde formation: ethanol oxidation by NAD+ with Alcohol Dehydrogenase, with or without additive
T1 construct: Alcohol Dehydrogenase (from Equine liver); from tissue; host or cells: equine liver
T1 sequence (P00327 whole entry): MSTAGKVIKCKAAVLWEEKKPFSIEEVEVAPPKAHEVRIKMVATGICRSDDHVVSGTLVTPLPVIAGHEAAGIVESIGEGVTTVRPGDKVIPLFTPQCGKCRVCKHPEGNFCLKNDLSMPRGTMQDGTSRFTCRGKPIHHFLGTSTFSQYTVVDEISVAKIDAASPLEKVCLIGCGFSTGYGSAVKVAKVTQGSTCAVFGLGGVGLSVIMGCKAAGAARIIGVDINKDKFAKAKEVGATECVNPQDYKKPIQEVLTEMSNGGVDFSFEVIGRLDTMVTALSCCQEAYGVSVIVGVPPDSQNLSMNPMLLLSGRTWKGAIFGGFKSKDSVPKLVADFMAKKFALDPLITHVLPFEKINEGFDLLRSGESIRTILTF
Description: as §1, §2
To a 0.05M solution of ethanol in a 1M (pH 9.25) phosphate buffer (10 μL) are added 10 μL each of a solution 0.08M in NAD^+ (in deionized distilled water) and 4 U/mL Alcohol Dehydrogenase (from Equine liver) in the above buffer, and diluted to 100 μL with buffer. At the end of a specified time, it was quenched with the DNP reagent.
The procedure in Example 1 was repeated with the addition of 10 μL of a 0.01M vanadyl sulfate solution in deionized distilled water.
The procedure-in Example 2 is repeated using a pH 7.25 1M phosphate buffer.
The procedure in Example 3 is repeated using a pH 7.25 1M phosphate buffer.

ADH, sequence (P00327 whole entry): as above

## O=C1c2c(O)cccc2C([C@@H]2O[C@H](CO)[C@@H](O)[C@H](O)[C@H]2O)c2cc(CO)cc(O)c21 (stereo partly shown) [Aloin]
ADH; additive .000005M
  Relative rates of Ethanol Oxidation in presence of Additives (Control = 1): 1.07
ADH; additive .00001M
  Relative rates of Ethanol Oxidation in presence of Additives (Control = 1): 1.19

## O=c1c(-c2ccc(O)cc2)coc2cc(O)ccc12 [Daidezin]
ADH; additive .000005M
  Relative rates of Ethanol Oxidation in presence of Additives (Control = 1): 1.28
ADH; additive .00001M
  Relative rates of Ethanol Oxidation in presence of Additives (Control = 1): 1.38

## O=C(O)c1cc(C(=O)O)c2c(n1)C(=O)C(=O)c1cc(C(=O)O)[nH]c1-2 [Methoxatin, 4,5-Dihydro-4,5-dioxo-1H-pyrrolo [2,3-f] quinoline-2,7,9-tricarboxylic acid]
ADH; additive .000005M
  Relative rates of Ethanol Oxidation in presence of Additives (Control = 1): 1.29
ADH; additive .00001M
  Relative rates of Ethanol Oxidation in presence of Additives (Control = 1): 1.59

## [Na+].[Na+].[O]=[Mo](=[O])([O-])[O-] [Molybdate, sodium molybdate]
[1]; pH 7.25
  Slope: .00000012 mol/L/min
[1]; pH 7.25, absorption at 340 nm, * unexplained, text mentions an induction period
  Slope (OD/Min): .0025* OD/Min
[1]; pH 9.25
  Slope: .0000003 mol/L/min
[1]; pH 9.25, absorption at 340 nm, * unexplained, text mentions an induction period
  Slope (OD/Min): .0035* OD/Min

## NC(=O)c1ccc[n+]([C@@H]2O[C@H](COP(=O)([O-])OP(=O)(O)OC[C@H]3O[C@@H](n4cnc5c(N)ncnc54)[C@H](O)[C@@H]3O)[C@@H](O)[C@H]2O)c1 [NAD^+, Nicotinamide Adenine Dinucleotide, reference compound]
[2]; pH 7.25, ethanol + NAD+
  DNP reaction (acetaldehyde formation): negative
[2]; pH 9.25, ethanol + NAD+
  DNP reaction (acetaldehyde formation): negative

## O=S(=O)([O-])[O-].[O]=[V+2] [vanadyl sulfate]
[3]; pH 7.25
  DNP reaction (acetaldehyde formation): positive
[3]; pH 9.25
  DNP reaction (acetaldehyde formation): positive
[1]; pH 7.25
  Slope: .0000036 mol/L/min
  Slope (OD/Min): .0079 OD/Min
[1]; pH 9.25
  Slope: .000005 mol/L/min
  Slope (OD/Min): .0112 OD/Min

## ammonium molybdate
[3]; pH 9.25
  DNP results of Examples 1-5 repeated with the additive in place of vanadyl sulfate: almost identical results

## sodium phosphotungstate
[3]; pH 7.25
  DNP results of Examples 25-30 repeated with the additive in place of vanadyl sulfate: almost identical results
[3]; pH 9.25
  DNP results of Examples 1-5 repeated with the additive in place of vanadyl sulfate: almost identical results
[1]; pH 7.25
  Slope: 0 mol/L/min
  Slope (OD/Min): 0 OD/Min
[1]; pH 9.25
  Slope: .0000006 mol/L/min
  Slope (OD/Min): .007* OD/Min
